Results reported in patent publication US10004701B2, “Methods and compositions for treating infection” (UNIVERSITY OF ROCHESTER, priority 2012, dated 2018).
Structures can show the parent of a compound that is named as a salt. Where two headings read alike, the source gives them in different places.

Key:
Assay in all cases: AK assay 384-well format, Prestwick library screening
[1] = tested on: S. aureus strain USA300-0114; type: cell-based, Staphylococcus aureus; settings: for fold induction at 50 µM: Staphylococcus aureus, USA300, 3 h
P. aeruginosa = type: cell-based, Pseudomonas aeruginosa; settings: for fold induction at 50 µM: Pseudomonas aeruginosa, 3 h
[2] = tested on: A. baumannii strain 98-37-09; type: cell-based, Acinetobacter baumannii; settings: for fold induction at 50 µM: Acinetobacter baumannii, 983709, 3 h
E. coli = type: cell-based, Escherichia coli; settings: for fold induction at 50 µM: Escherichia coli, 3 h
E. cloacae = type: cell-based, Enterobacter cloacae; settings: for fold induction at 50 µM: Enterobacter cloacae, 3 h
E. faecium = type: cell-based, Enterococcus faecium; settings: for fold induction at 50 µM: Enterococcus faecium, 3 h
K. pneumoniae = type: cell-based, Klebsiella pneumoniae; settings: for fold induction at 50 µM: Klebsiella pneumoniae, 3 h
[3] = 50 μM final drug concentration, cutoff for positive-scoring molecules 3-fold increase, read-out: AK-based Prestwick Library Screening Results, S. aureus (fold increase in extracellular AK activity)
[4] = 50 μM final drug concentration, cutoff for positive-scoring molecules 3-fold increase, read-out: AK-based Prestwick Library Screening Results, P. aeruginosa (fold increase in extracellular AK activity)
[5] = 50 μM final drug concentration, cutoff for positive-scoring molecules 3-fold increase, read-out: AK-based Prestwick Library Screening Results, A. baumannii (fold increase in extracellular AK activity)
[6] = 50 μM final drug concentration, cutoff for positive-scoring molecules 3-fold increase, read-out: AK-based Prestwick Library Screening Results, E. coli (fold increase in extracellular AK activity)
[7] = 50 μM final drug concentration, cutoff for positive-scoring molecules 3-fold increase, read-out: AK-based Prestwick Library Screening Results, E. cloacae (fold increase in extracellular AK activity)
[8] = 50 μM final drug concentration, cutoff for positive-scoring molecules 3-fold increase, read-out: AK-based Prestwick Library Screening Results, E. faecium (fold increase in extracellular AK activity)
[9] = 50 μM final drug concentration, cutoff for positive-scoring molecules 3-fold increase, read-out: AK-based Prestwick Library Screening Results, K. pneumoniae (fold increase in extracellular AK activity)
[10] = 50 μM final drug concentration, planktonic, cutoff for positive 3-fold increase
[11] = 50 μM final drug concentration, 384-well format, cutoff for positive-scoring molecules 3-fold increase, read-out: AK-based Prestwick Library Screening Results, S. aureus (increase in extracellular AK activity)
[12] = 50 μM final drug concentration, 384-well format, cutoff for positive-scoring molecules 3-fold increase, read-out: AK-based Prestwick Library Screening Results, P. aeruginosa (increase in extracellular AK activity)
[13] = 50 μM final drug concentration, 384-well format, cutoff for positive-scoring molecules 3-fold increase, read-out: AK-based Prestwick Library Screening Results, A. baumannii (increase in extracellular AK activity)
[14] = 50 μM final drug concentration, 384-well format, cutoff for positive-scoring molecules 3-fold increase, read-out: AK-based Prestwick Library Screening Results, E. coli (increase in extracellular AK activity)
[15] = 50 μM final drug concentration, 384-well format, cutoff for positive-scoring molecules 3-fold increase, read-out: AK-based Prestwick Library Screening Results, E. cloacae (increase in extracellular AK activity)
[16] = 50 μM final drug concentration, 384-well format, cutoff for positive-scoring molecules 3-fold increase, read-out: AK-based Prestwick Library Screening Results, E. faecium (increase in extracellular AK activity)
[17] = 50 μM final drug concentration, 384-well format, cutoff for positive-scoring molecules 3-fold increase, read-out: AK-based Prestwick Library Screening Results, K. pneumoniae (increase in extracellular AK activity)

SMILES: Oc1c(I)cc(Cl)c2cccnc12 [Clioquinol]
- fold induction at 50 µM ([1]; 50 μM final drug concentration, planktonic, cutoff for positive-scoring molecules 3-fold increase, read-out: AK-based Prestwick Library Screening Results, S. aureus (fold increase in extracellular AK activity)): 0.2
- fold induction at 50 µM (P. aeruginosa; 50 μM final drug concentration, planktonic, cutoff for positive-scoring molecules 3-fold increase, read-out: AK-based Prestwick Library Screening Results, P. aeruginosa (fold increase in extracellular AK activity)): 0.4
- fold induction at 50 µM ([2]; 50 μM final drug concentration, planktonic, cutoff for positive-scoring molecules 3-fold increase, read-out: AK-based Prestwick Library Screening Results, A. baumannii (fold increase in extracellular AK activity)): 1.1
- fold induction at 50 µM (E. coli; 50 μM final drug concentration, planktonic, cutoff for positive-scoring molecules 3-fold increase, read-out: AK-based Prestwick Library Screening Results, E. coli (fold increase in extracellular AK activity)): 0.5
- fold induction at 50 µM (E. cloacae; 50 μM final drug concentration, planktonic, cutoff for positive-scoring molecules 3-fold increase, read-out: AK-based Prestwick Library Screening Results, E. cloacae (fold increase in extracellular AK activity)): 0.5
- fold induction at 50 µM (E. faecium; 50 μM final drug concentration, planktonic, cutoff for positive-scoring molecules 3-fold increase, read-out: AK-based Prestwick Library Screening Results, E. faecium (fold increase in extracellular AK activity)): 0.9
- fold induction at 50 µM (K. pneumoniae; 50 μM final drug concentration, planktonic, cutoff for positive-scoring molecules 3-fold increase, read-out: AK-based Prestwick Library Screening Results, K. pneumoniae (fold increase in extracellular AK activity)): 0.6

SMILES: CCC(=O)O[C@]1(C(=O)CCl)[C@@H](C)C[C@H]2[C@@H]3CCC4=CC(=O)C=C[C@]4(C)[C@@]3(F)[C@@H](O)C[C@@]21C [Clobetasol propionate]
- fold induction at 50 µM [1, 3]: 0.9
- fold induction at 50 µM (P. aeruginosa; [4]): 1.1
- fold induction at 50 µM [2, 5]: 1.3
- fold induction at 50 µM (E. coli; [6]): 1.2
- fold induction at 50 µM (E. cloacae; [7]): 1.3
- fold induction at 50 µM (E. faecium; [8]): 1
- fold induction at 50 µM (K. pneumoniae; [9]): 1

SMILES: C[C@@H]1C[C@H]2[C@@H]3C[C@H](F)C4=CC(=O)C=C[C@]4(C)[C@@]3(Cl)[C@@H](O)C[C@]2(C)[C@H]1C(=O)COC(=O)C(C)(C)C [Clocortolone pivalate]
- fold induction at 50 µM ([1]; planktonic S. aureus, 50 μM final drug concentration, positive cutoff 3-fold increase, read-out: AK-based Prestwick library screening result, S. aureus (fold increase in extracellular AK activity)): 1.1
- fold induction at 50 µM (P. aeruginosa; planktonic P. aeruginosa, 50 μM final drug concentration, positive cutoff 3-fold increase, read-out: AK-based Prestwick library screening result, P. aeruginosa (fold increase in extracellular AK activity)): 1
- fold induction at 50 µM ([2]; planktonic A. baumannii, 50 μM final drug concentration, positive cutoff 3-fold increase, read-out: AK-based Prestwick library screening result, A. baumannii (fold increase in extracellular AK activity)): 1.2
- fold induction at 50 µM (E. coli; planktonic E. coli, 50 μM final drug concentration, positive cutoff 3-fold increase, read-out: AK-based Prestwick library screening result, E. coli (fold increase in extracellular AK activity)): 1
- fold induction at 50 µM (E. cloacae; planktonic E. cloacae, 50 μM final drug concentration, positive cutoff 3-fold increase, read-out: AK-based Prestwick library screening result, E. cloacae (fold increase in extracellular AK activity)): 1.6
- fold induction at 50 µM (E. faecium; planktonic E. faecium, 50 μM final drug concentration, positive cutoff 3-fold increase, read-out: AK-based Prestwick library screening result, E. faecium (fold increase in extracellular AK activity)): 1.1
- fold induction at 50 µM (K. pneumoniae; planktonic K. pneumoniae, 50 μM final drug concentration, positive cutoff 3-fold increase, read-out: AK-based Prestwick library screening result, K. pneumoniae (fold increase in extracellular AK activity)): 1

SMILES: CC(C)/N=c1\cc2n(-c3ccc(Cl)cc3)c3ccccc3nc-2cc1Nc1ccc(Cl)cc1 [Clofazimine, clofazimine, reference compound]
- activity in AK Prestwick screen ([1]; S. aureus USA300-0114, 50 μM, cutoff 3-fold increase in AK): active
- fold induction at 50 µM ([1]; 50 μM final drug concentration, planktonic, cutoff for positive 3-fold increase, read-out: AK-based Prestwick Library Screening Results, S. aureus (fold increase in extracellular AK activity)): 4.6
- fold induction at 50 µM (P. aeruginosa; 50 μM final drug concentration, planktonic, cutoff for positive 3-fold increase, read-out: AK-based Prestwick Library Screening Results, P. aeruginosa (fold increase in extracellular AK activity)): 1
- fold induction at 50 µM ([2]; 50 μM final drug concentration, planktonic, cutoff for positive 3-fold increase, read-out: AK-based Prestwick Library Screening Results, A. baumannii (fold increase in extracellular AK activity)): 5
- fold induction at 50 µM (E. coli; 50 μM final drug concentration, planktonic, cutoff for positive 3-fold increase, read-out: AK-based Prestwick Library Screening Results, E. coli (fold increase in extracellular AK activity)): 1.2
- fold induction at 50 µM (E. cloacae; 50 μM final drug concentration, planktonic, cutoff for positive 3-fold increase, read-out: AK-based Prestwick Library Screening Results, E. cloacae (fold increase in extracellular AK activity)): 1.8
- fold induction at 50 µM (E. faecium; 50 μM final drug concentration, planktonic, cutoff for positive 3-fold increase, read-out: AK-based Prestwick Library Screening Results, E. faecium (fold increase in extracellular AK activity)): 1
- fold induction at 50 µM (K. pneumoniae; 50 μM final drug concentration, planktonic, cutoff for positive 3-fold increase, read-out: AK-based Prestwick Library Screening Results, K. pneumoniae (fold increase in extracellular AK activity)): 1.1

SMILES: CC(C)(Oc1ccc(Cl)cc1)C(=O)O [Clofibric acid]
- fold induction at 50 µM [1, 3]: 1.4
- fold induction at 50 µM (P. aeruginosa; [4]): 1.2
- fold induction at 50 µM [2, 5]: 1.3
- fold induction at 50 µM (E. coli; [6]): 1.2
- fold induction at 50 µM (E. cloacae; [7]): 1.5
- fold induction at 50 µM (E. faecium; [8]): 1.1
- fold induction at 50 µM (K. pneumoniae; [9]): 1.1

SMILES: CCN(CC)CCOc1ccc(C(=C(Cl)c2ccccc2)c2ccccc2)cc1.O=C(O)CC(O)(CC(=O)O)C(=O)O [Clomiphene citrate (Z,E)]
- AK-based Prestwick Library Screening Results, S. aureus (fold increase in extracellular AK activity) [1, 10]: 2.0
- AK-based Prestwick Library Screening Results, P. aeruginosa (fold increase in extracellular AK activity) (P. aeruginosa; [10]): 1.4
- AK-based Prestwick Library Screening Results, A. baumannii (fold increase in extracellular AK activity) [2, 10]: 5.4
- AK-based Prestwick Library Screening Results, E. coli (fold increase in extracellular AK activity) (E. coli; [10]): 1.8
- AK-based Prestwick Library Screening Results, E. cloacae (fold increase in extracellular AK activity) (E. cloacae; [10]): 1.9
- AK-based Prestwick Library Screening Results, E. faecium (fold increase in extracellular AK activity) (E. faecium; [10]): 4.4
- AK-based Prestwick Library Screening Results, K. pneumoniae (fold increase in extracellular AK activity) (K. pneumoniae; [10]): 1.6

SMILES: CN(C)CCCN1c2ccccc2CCc2ccc(Cl)cc21 [Clomipramine hydrochloride]
- fold induction at 50 µM [1, 11]: 0.8
- fold induction at 50 µM (P. aeruginosa; [12]): 0.9
- fold induction at 50 µM [2, 13]: 1
- fold induction at 50 µM (E. coli; [14]): 1.1
- fold induction at 50 µM (E. cloacae; [15]): 1
- fold induction at 50 µM (E. faecium; [16]): 1.1
- fold induction at 50 µM (K. pneumoniae; [17]): 0.7

SMILES: Clc1cccc(Cl)c1N=C1NCCN1 [Clonidine hydrochloride]
- fold induction at 50 µM [1, 11]: 0.5
- fold induction at 50 µM (P. aeruginosa; [12]): 0.5
- fold induction at 50 µM [2, 13]: 0.6
- fold induction at 50 µM (E. coli; [14]): 0.5
- fold induction at 50 µM (E. cloacae; [15]): 0.6
- fold induction at 50 µM (E. faecium; [16]): 0.9
- fold induction at 50 µM (K. pneumoniae; [17]): 0.5

SMILES: Cc1c(Cl)cccc1Nc1ncccc1C(=O)O.NCCCC[C@H](N)C(=O)O [Clonixin Lysinate]
- AK-based Prestwick library screening result, S. aureus (fold increase in extracellular AK activity) [1]: 1.2
- AK-based Prestwick library screening result, P. aeruginosa (fold increase in extracellular AK activity) (P. aeruginosa): 1.0
- AK-based Prestwick library screening result, A. baumannii (fold increase in extracellular AK activity) [2]: 1.4
- AK-based Prestwick library screening result, E. coli (fold increase in extracellular AK activity) (E. coli): 1.0
- AK-based Prestwick library screening result, E. cloacae (fold increase in extracellular AK activity) (E. cloacae): 1.5
- AK-based Prestwick library screening result, E. faecium (fold increase in extracellular AK activity) (E. faecium): 0.9
- AK-based Prestwick library screening result, K. pneumoniae (fold increase in extracellular AK activity) (K. pneumoniae): 1.1
